Laboratory results reported in ChEMBL document CHEMBL3526005, “Pharmacokinetic and pharmacodynamic properties of cholinesterase inhibitors donepezil, tacrine, and galantamine in aged and young Lister hooded rats” (Drug Metab Dispos, 2011).
Calls of active or inactive are those of the source. The calls are words filed in the database; no cut-off is given here.

Legend:
Homo sapiens = test: Volume of distribution in human at 2 mg, po single dose; details: in vivo
in vivo [1] = details: Lister Hooded, rat, po, 3 mg/kg
in vivo [2] = details: Lister Hooded, rat, po, 3 mg/kg; remark: listed apart in the source
[3] = Tmax in human at 2 mg, po single dose; details: in vivo
Rattus norvegicus [4] = species on record: Rattus norvegicus; details: in vivo, po, 3 mg/kg
in vivo [5] = details: Lister Hooded, rat, iv, 1 mg/kg
in vivo [6] = details: Lister Hooded, rat, po, 3 mg/kg; remark: listed apart in the source
[7] = Half life in 7 months-old Lister Hooded rat at 1 mg/kg, iv infusion for 1 hr; details: in vivo
Rattus norvegicus [8] = species on record: Rattus norvegicus; details: in vivo, po, 3 mg/kg; remark: listed apart in the source
in vivo [9] = details: Lister Hooded, rat, brain, po, 3 mg/kg
Description: Ratio of brain to blood in 30 months-old Lister Hooded rat blood at 3 mg/kg, po after 1 hr treatment

[10] = Half life in 30 months-old Lister Hooded rat at 1 mg/kg, iv infusion for 1 hr; details: in vivo
Rattus norvegicus [11] = species on record: Rattus norvegicus; details: in vivo, iv, 1 mg/kg, 1 h
[12] = Volume of distribution in 7 months-old Lister Hooded rat at 1 mg/kg, iv infusion for 1 hr; details: in vivo
[13] = Half life in human at 2 mg, po single dose; details: in vivo
Rattus norvegicus [14] = species on record: Rattus norvegicus; details: in vivo, po, 3 mg/kg; remark: listed apart in the source
in vivo [15] = details: Lister Hooded, rat, po, 3 mg/kg; remark: listed apart in the source
[16] = Mean residence time in 30 months-old Lister Hooded rat at 1 mg/kg, iv infusion for 1 hr; details: in vivo
in vivo [17] = details: Lister Hooded, rat, iv, 1 mg/kg; remark: listed apart in the source
[18] = Clearance in human at 2 mg, po single dose; details: in vivo
[19] = Mean residence time in 7 months-old Lister Hooded rat at 1 mg/kg, iv infusion for 1 hr; details: in vivo
Rattus norvegicus [20] = test: Inhibition of cholinesterase activity in 7 months-old Lister Hooded rat plasma at 3 mg/kg, po after 1 hr treatment; assay type: organism-based; set-up: dose 3 mg/kg
Rattus norvegicus [21] = test: Inhibition of cholinesterase activity in 30 months-old Lister Hooded rat plasma assessed as percent enhancement of inhibition at 3 mg/kg, po after 1 hr treatment; assay type: organism-based; set-up: dose 3 mg/kg; scale not given: the % may be the effect or the level left
in vivo [22] = details: Lister Hooded, rat, po, 3 mg/kg; remark: listed apart in the source
Rattus norvegicus [23] = species on record: Rattus norvegicus; details: in vivo, iv, 1 mg/kg, 1 h; remark: listed apart in the source
Rattus norvegicus [24] = species on record: Rattus norvegicus; details: in vivo, iv, 1 mg/kg, 1 h; remark: listed apart in the source
Rattus norvegicus [25] = species on record: Rattus norvegicus; details: in vivo, po, 3 mg/kg; remark: listed apart in the source
in vivo [26] = details: Lister Hooded, rat, po, 3 mg/kg; remark: listed apart in the source
[27] = Ratio of brain to blood in 7 months-old Lister Hooded rat blood at 3 mg/kg, po after 1 hr treatment
[28] = Drug excretion in human urine assessed as unchanged drug level at 2 mg, po single dose; assay type: ADME, organism-based; details: read-out: Drug excretion
in vivo [29] = details: Lister Hooded, rat, iv, 1 mg/kg; remark: listed apart in the source
[30] = Volume of distribution in 30 months-old Lister Hooded rat at 1 mg/kg, iv infusion for 1 hr; details: in vivo
[31] = Oral bioavailability in human at 2 mg single dose; details: in vivo
in vivo [32] = details: Lister Hooded, rat, iv, 1 mg/kg; remark: listed apart in the source
[33] = Drug uptake in 30 months-old Lister Hooded rat blood at 3 mg/kg, po after 1 hr treatment; details: in vivo
Rattus norvegicus [34] = species on record: Rattus norvegicus; details: in vivo, iv, 1 mg/kg, 1 h; remark: listed apart in the source
[35] = Drug uptake in 7 months-old Lister Hooded rat blood at 3 mg/kg, po after 1 hr treatment; details: in vivo
[36] = Drug uptake in 7 months-old Lister Hooded rat assessed as corrected brain concentration at 3 mg/kg, po after 1 hr treatment; details: in vivo
[37] = Drug uptake in 30 months-old Lister Hooded rat assessed as corrected brain concentration at 3 mg/kg, po after 1 hr treatment; details: in vivo
[38] = target: Butyrylcholinesterase (Rattus norvegicus) (UniProt Q9JKC1); details: Lister Hooded, 3 mg/kg
Description: Inhibition of butyrylcholinesterase activity in 7 months-old Lister Hooded rat brain at 3 mg/kg, po after 1 hr treatment

[39] = Drug excretion in human feces at 2 mg, po single dose; details: in vivo
[40] = target: Butyrylcholinesterase (Rattus norvegicus) (UniProt Q9JKC1); details: Lister Hooded, Plasma, 3 mg/kg
Description: Inhibition of butyrylcholinesterase activity in 7 months-old Lister Hooded rat plasma at 3 mg/kg, po after 1 hr treatment

[41] = Drug excretion in human urine at 2 mg, po single dose; details: in vivo
[42] = Plasma protein binding in human at 2 mg, po single dose; details: in vivo

Butyrylcholinesterase (Rattus norvegicus), sequence (Q9JKC1 as listed by the source): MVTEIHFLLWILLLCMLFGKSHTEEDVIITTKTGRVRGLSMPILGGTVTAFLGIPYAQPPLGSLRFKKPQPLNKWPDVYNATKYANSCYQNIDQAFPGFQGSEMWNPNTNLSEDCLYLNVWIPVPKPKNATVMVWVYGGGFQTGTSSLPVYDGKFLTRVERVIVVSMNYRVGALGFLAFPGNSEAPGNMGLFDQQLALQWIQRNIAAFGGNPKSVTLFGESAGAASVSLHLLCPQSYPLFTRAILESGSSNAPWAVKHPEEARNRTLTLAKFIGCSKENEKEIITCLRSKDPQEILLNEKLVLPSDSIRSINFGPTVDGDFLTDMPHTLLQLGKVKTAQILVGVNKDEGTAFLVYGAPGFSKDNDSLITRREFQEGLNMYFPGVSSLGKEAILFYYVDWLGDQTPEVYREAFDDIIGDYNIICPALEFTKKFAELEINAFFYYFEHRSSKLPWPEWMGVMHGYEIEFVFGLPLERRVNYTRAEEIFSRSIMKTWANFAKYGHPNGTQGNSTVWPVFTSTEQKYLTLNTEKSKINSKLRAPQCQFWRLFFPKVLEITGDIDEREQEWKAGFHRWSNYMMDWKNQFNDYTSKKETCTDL

| Compound | Vd (Homo sapiens) [L/kg] | Cmax (in vivo [1]) [nM] | Tmax (in vivo [2]) [h] | Tmax [3] [h] | AUCt (Rattus norvegicus [4]) [µM·h] | bioavailability (in vivo [6]) [%] | half-life at 1 h [7] [h] | AUCt (Rattus norvegicus [8]) [µM·h] | Kp at 1 h (in vivo [9]) | half-life at 1 h [10] [h] | Vd at 1 h [12] [L/kg] | half-life [13] [h] | Tmax (in vivo [15]) [h] | MRT at 1 h [16] [h] | Cmax at 1 h (in vivo [17]) [nM] | CL/F [18] [mL/min/kg] | MRT at 1 h [19] [h] | inhibition (Rattus norvegicus [20]) [%] | bioavailability (in vivo [22]) [%] | AUCt/dose (Rattus norvegicus [23]) [kg·min/L] | further results |
| --- | --- | --- | --- | --- | --- | --- | --- | --- | --- | --- | --- | --- | --- | --- | --- | --- | --- | --- | --- | --- | --- |
| COc1cc2c(cc1OC)C(=O)C(CC1CCN(Cc3ccccc3)CC1)C2.Cl (configuration not stated) [DONEPEZIL HYDROCHLORIDE] | 12 | 200 | 1 | 3 | 0.76 | 43 | 2.5 | 0.91 | 5.3 | 3.6 | 9.2 | 70 | 1 | 4.6 | 300 | 2.17 | 3 | 92.6 | 36 | 15.9 | clearance at 1 h (in vivo [5]; blood): 43 mL/min/kg; AUC/dose (Rattus norvegicus [11]): 23.7 kg·min/L; AUC/dose (Rattus norvegicus [14]): 6.9 kg·min/L; Activity (Rattus norvegicus [21]): 18%; AUCt/dose (Rattus norvegicus [24]): 16.4 kg·min/L; AUC/dose (Rattus norvegicus [25]): 5.8 kg·min/L; Cmax (in vivo [26]): 180 nM; Kp at 1 h [27]: 4.4; dose excreted [28]: 17%; Cmax at 1 h (in vivo [29]): 320 nM; Vd at 1 h [30]: 11.8 L/kg; bioavailability [31]: 100%; clearance at 1 h (in vivo [32]; blood): 52 mL/min/kg |
| Br.COc1ccc2c3c1O[C@H]1C[C@@H](O)C=C[C@@]31CCN(C)C2 [GALANTAMINE HYDROBROMIDE] | 2.9 | 1330 | 0.5 | 1 | 2.89 | 67 | 1.9 | 3.45 | 2 | 1.2 | 5 | 5 | 0.5 | 1.5 | 910 | 5.67 | 2 | 92.6 | 83 | 20.4 | clearance at 1 h (in vivo [5]; blood): 34 mL/min/kg; concentration at 1 h [33]: 580 nM; AUC/dose (Rattus norvegicus [34]): 22.7 kg·min/L; concentration at 1 h [35]: 420 nM; AUC/dose (Rattus norvegicus [11]): 29.9 kg·min/L; AUC/dose (Rattus norvegicus [14]): 19.3 kg·min/L; concentration at 1 h [36]: 730 nM; concentration at 1 h [37]: 1140 nM; AUCt/dose (Rattus norvegicus [24]): 28.9 kg·min/L; AUC/dose (Rattus norvegicus [25]): 17.4 kg·min/L; Cmax (in vivo [26]): 890 nM; Kp at 1 h [27]: 1.7; dose excreted [28]: 32%; Cmax at 1 h (in vivo [29]): 590 nM; Vd at 1 h [30]: 2.9 L/kg; bioavailability [31]: 85%; clearance at 1 h (in vivo [32]; blood): 41 mL/min/kg |
| Cl.Nc1c2c(nc3ccccc13)CCCC2 [TACRINE HYDROCHLORIDE] | 5.02 | 310 | 0.5 | 1 | 0.7 | 29 | 0.9 | 0.89 | 9.5 | 1.1 | 5.1 | 2 | 0.5 | 1.1 | 740 | 40.3 | 0.9 | 92.6 | 27 | 10.2 | inhibition [38]: Active; clearance at 1 h (in vivo [5]; in vivo): 77 mL/min/kg; Drug excretion [39]: 23%; concentration at 1 h [33]: 190 nM; concentration at 1 h [35]: 110 nM; concentration at 1 h [36]: 1240 nM; inhibition [40]: Active; concentration at 1 h [37]: 1720 nM; Drug excretion [41]: 57%; AUCt/dose (Rattus norvegicus [24]): 12.4 kg·min/L; Cmax (in vivo [26]): 360 nM; Kp at 1 h [27]: 11; Cmax at 1 h (in vivo [29]): 700 nM; Vd at 1 h [30]: 5.2 L/kg; bioavailability [31]: 17%; fraction unbound [42]: 0.45; clearance at 1 h (in vivo [32]; in vivo): 93 mL/min/kg |
